Measurements published in US8217189B2, “Chromenone potassium channel blockers and uses thereof” (Bionomics Limited, priority 2006, dated 2012).

Molecular target: T1, human Kv1.3 ion channel (Homo sapiens, UniProt P22001)
T1 construct: Human Jurkat cells (which endogenously express hKv1.3) were used in place of rat L929 cells; endogenous in cells; host or cells: human Jurkat cells
Experiment: Inhibition of Kv1.3 currents, planar patch clamp in human Jurkat cells
Type: cell-based
Settings: Jurkat cells endogenously expressing hKv1.3, averaged dose response data from 3 or more cells
Procedure: Potency of compounds to inhibit the human Kv1.3 ion channel were determined as follows:
EC50 values for inhibition of Kv1.3 currents were determined by the method according to Schmitz et al (2005) Molecular Pharmacology 68, 1254-1270 with the following differences:
1. Human Jurkat cells (which endogenously express hKv1.3) were used in place of rat L929 cells.
2. All electrophysiology was performed using planar patch clamp (Port-A-Patch, Nanion Technologies Gmbh, Munich) in contrast to conventional patch clamp.
3. EC50 values shown were determined from averaged dose response data obtained from 3 or more cells.

T1 sequence (P22001 whole entry): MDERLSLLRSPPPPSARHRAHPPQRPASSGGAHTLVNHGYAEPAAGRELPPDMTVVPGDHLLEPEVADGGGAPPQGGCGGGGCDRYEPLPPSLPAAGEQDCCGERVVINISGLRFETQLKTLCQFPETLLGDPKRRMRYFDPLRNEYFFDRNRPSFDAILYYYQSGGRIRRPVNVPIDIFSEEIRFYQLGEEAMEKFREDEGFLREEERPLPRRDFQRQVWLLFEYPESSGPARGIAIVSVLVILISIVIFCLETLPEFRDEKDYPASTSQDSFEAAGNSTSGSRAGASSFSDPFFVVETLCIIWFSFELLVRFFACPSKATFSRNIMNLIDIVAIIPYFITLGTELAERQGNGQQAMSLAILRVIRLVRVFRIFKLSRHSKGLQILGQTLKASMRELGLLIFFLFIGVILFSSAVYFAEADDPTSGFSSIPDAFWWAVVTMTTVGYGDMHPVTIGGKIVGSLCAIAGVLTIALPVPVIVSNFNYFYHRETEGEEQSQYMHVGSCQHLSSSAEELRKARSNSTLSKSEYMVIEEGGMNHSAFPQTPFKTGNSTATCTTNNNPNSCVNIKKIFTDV

| Compound | EC50 |
| --- | --- |
| CSCc1cc(=O)c2c(C)c3ccoc3c(OCCCc3ccccc3)c2o1 [1 c)] | 30 nM |
| Cc1c2ccoc2c(OCCCc2ccc(F)cc2)c2oc(CN(C)C)cc(=O)c12 [6 c)] | 28 nM |
| COc1c2ccoc2c(OCCCc2ccccc2)c2oc(CN(C)C)cc(=O)c12 [7 c)] | 270 nM |
| Cc1c2ccoc2c(OCC[C@@H](C)c2ccccc2)c2oc(CN(C)C)cc(=O)c12 [8 d)] | 14 nM |
| Cc1c2ccoc2c(OCCCc2ccccc2)c2oc(CN(C)C)cc(=O)c12 [Example 2, 7-Dimethylaminomethyl-4-methyl-9-(3-phenylpropoxy)furo[3,2-g]chromen-5-one] | 29 nM |
| Cc1c2ccoc2c(OCCCc2ccccc2)c2oc(CN3CCOCC3)cc(=O)c12 [Example 3, 4-Methyl-7-(morpholin-4-ylmethyl)-9-(3-phenylpropoxy)furo[3,2-g]chromen-5-one] | 190 nM |
| CN(C)Cc1cc(=O)c2c(OCCCCOc3ccccc3)c3ccoc3cc2o1 [Example 5, 7-Dimethylaminomethyl-4-(4-phenoxybutoxy)-furo[3,2-g]chromen-5-one] | 1420 nM |
| Cc1c2ccoc2c(OCCCc2ccccc2)c2oc(CS(C)(=O)=O)cc(=O)c12 [Example 9, 7-Methanesulfonylmethyl-4-methyl-9-(phenyl-propoxy)-furo[3,2-g]chromen-5-one] | 200 nM |
